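Protocol summary: plate cells (96-well), add compound at 5 concentrations, incubate 48 h, interpolate endpoints linearly. GI50 is the concentration that inhibits growth by half.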 Active and inactive are the calls of the source. Rule as the data show it: active = GI50 up to about 1.1 µM and inactive = higher.
What was measured:
Experiment in all cases: DTP human tumour cell line panel, 48 h
PC-3 = tested on: PC-3
SW-620 = tested on: SW-620
A498 = tested on: A498
NCI-H23 = tested on: NCI-H23
HCC 2998 = tested on: HCC 2998
BT-549 = tested on: BT-549
TK-10 = tested on: TK-10
SNB-19 = tested on: SNB-19
MOLT-4 = tested on: MOLT-4
K562 = tested on: K562
SF-295 = tested on: SF-295
U-251 = tested on: U-251
A549 = tested on: A549
SF-539 = tested on: SF-539
SK-MEL-2 = tested on: SK-MEL-2
MDA-N = tested on: MDA-N
NCI-H522 = tested on: NCI-H522
Malme-3M = tested on: Malme-3M
UO-31 = tested on: UO-31
SR = tested on: SR

Compound	GI50 (PC-3)	GI50 (SW-620)	GI50 (A498)	GI50 (NCI-H23)	GI50 (HCC 2998)	GI50 (BT-549)	GI50 (TK-10)	GI50 (SNB-19)	GI50 (MOLT-4)	GI50 (K562)	GI50 (SF-295)	GI50 (U-251)	GI50 (A549)	GI50 (SF-539)	GI50 (SK-MEL-2)	GI50 (MDA-N)	GI50 (NCI-H522)	GI50 (Malme-3M)	GI50 (UO-31)	GI50 (SR)
NC(=S)N/N=C1\CCCCC1C(O)(C(F)(F)Cl)C(F)(F)Cl (stereo not given)	> 10 µM (inactive)	> 10 µM (inactive)	> 10 µM (inactive)	> 10 µM (inactive)	> 10 µM (inactive)	> 10 µM (inactive)	> 10 µM (inactive)	> 10 µM (inactive)	> 10 µM (inactive)	> 10 µM (inactive)	> 10 µM (inactive)	> 10 µM (inactive)	> 10 µM (inactive)	> 10 µM (inactive)	> 10 µM (inactive)	> 10 µM (inactive)	> 10 µM (inactive)	> 10 µM (inactive)	–	–
O=c1c2ncn(C3CCCO3)c2n(-c2ccccc2)c(=S)n1-c1ccccc1 (stereo not given)	> 100 µM (inactive)	> 100 µM (inactive)	> 100 µM (inactive)	> 100 µM (inactive)	> 100 µM (inactive)	> 100 µM (inactive)	> 100 µM (inactive)	–	> 100 µM (inactive)	> 100 µM (inactive)	> 100 µM (inactive)	> 100 µM (inactive)	> 100 µM (inactive)	> 100 µM (inactive)	> 100 µM (inactive)	–	> 100 µM (inactive)	–	> 100 µM (inactive)	> 100 µM (inactive)
COc1cc(/C=C2/C[C@H]3[C@@H]4CCC5=CC(=O)CC[C@]5(C)[C@H]4CC[C@]3(C)NC2=O)cc(OC)c1OC	21.1 µM (inactive)	36.7 µM (inactive)	11.6 µM (inactive)	21.3 µM (inactive)	21.1 µM (inactive)	21.6 µM (inactive)	16.2 µM (inactive)	45 µM (inactive)	10.2 µM (inactive)	–	20 µM (inactive)	19.5 µM (inactive)	20.6 µM (inactive)	–	24.8 µM (inactive)	26.4 µM (inactive)	14.1 µM (inactive)	26.7 µM (inactive)	0.9 µM (active)	–
CC(=O)/C(=C/c1ccccc1F)C(=O)c1ccccc1	27.7 µM (inactive)	20.7 µM (inactive)	> 100 µM (inactive)	32 µM (inactive)	16.2 µM (inactive)	48.2 µM (inactive)	24.4 µM (inactive)	60.7 µM (inactive)	2.19 µM (inactive)	–	43.8 µM (inactive)	29.6 µM (inactive)	57 µM (inactive)	> 100 µM (inactive)	27.5 µM (inactive)	37.9 µM (inactive)	26.5 µM (inactive)	–	34.1 µM (inactive)	–
COc1ccc2c(c1)/C(=C\c1c(Cl)nc3n1CCS3)C(=O)N2	3.36 µM (inactive)	4.94 µM (inactive)	4.89 µM (inactive)	11.2 µM (inactive)	2.74 µM (inactive)	6.76 µM (inactive)	5 µM (inactive)	14.6 µM (inactive)	4.01 µM (inactive)	3.02 µM (inactive)	3.72 µM (inactive)	5.37 µM (inactive)	5.62 µM (inactive)	4.65 µM (inactive)	–	1.48 µM (inactive)	3.73 µM (inactive)	11.2 µM (inactive)	5.86 µM (inactive)	–
c1ccc(/N=C(/Nc2ccccc2)N2CCCCC2)cc1	80.2 µM (inactive)	> 100 µM (inactive)	–	> 100 µM (inactive)	–	> 100 µM (inactive)	> 100 µM (inactive)	> 100 µM (inactive)	51.5 µM (inactive)	40 µM (inactive)	54.7 µM (inactive)	> 100 µM (inactive)	> 100 µM (inactive)	–	> 100 µM (inactive)	43.3 µM (inactive)	67.3 µM (inactive)	50.2 µM (inactive)	49.3 µM (inactive)	73.6 µM (inactive)
CCOC(=O)CO/N=C1/C(=C2/C(=O)Nc3ccccc32)Nc2ccccc21	78.7 µM (inactive)	34.7 µM (inactive)	15.1 µM (inactive)	17 µM (inactive)	> 100 µM (inactive)	78.3 µM (inactive)	86.3 µM (inactive)	10 µM (inactive)	22 µM (inactive)	> 100 µM (inactive)	33.3 µM (inactive)	6.78 µM (inactive)	24.5 µM (inactive)	41.1 µM (inactive)	39.6 µM (inactive)	> 100 µM (inactive)	> 100 µM (inactive)	> 100 µM (inactive)	86.7 µM (inactive)	–
c1ccc2c(c1)N[C@@H]1c3[nH]c4ccccc4c3CC[C@H]21	11.9 µM (inactive)	17.7 µM (inactive)	16.7 µM (inactive)	15.8 µM (inactive)	–	18.8 µM (inactive)	37 µM (inactive)	17.6 µM (inactive)	13.9 µM (inactive)	14 µM (inactive)	13.4 µM (inactive)	14.2 µM (inactive)	18.3 µM (inactive)	16.6 µM (inactive)	13.9 µM (inactive)	19.6 µM (inactive)	11.6 µM (inactive)	5.13 µM (inactive)	17.7 µM (inactive)	–
CC1OC(O[C@H]2C3C=CO[C@@H](OC4OC(CO)C(O)C(O)C4O)C3[C@@]3(COC(=O)/C=C/c4ccc(O)cc4)O[C@@H]23)C(O)C(O)C1O (stereo not given in full)	> 100 µM (inactive)	> 100 µM (inactive)	> 100 µM (inactive)	> 100 µM (inactive)	> 100 µM (inactive)	> 100 µM (inactive)	> 100 µM (inactive)	> 100 µM (inactive)	> 100 µM (inactive)	> 100 µM (inactive)	> 100 µM (inactive)	> 100 µM (inactive)	> 100 µM (inactive)	–	> 100 µM (inactive)	> 100 µM (inactive)	> 100 µM (inactive)	> 100 µM (inactive)	> 100 µM (inactive)	–
C[C@]12CC[C@H]3[C@@H](CCC4=C/C(=N/OCCN5CCCCC5)CC[C@@]43C)[C@@H]1CC[C@@H]2O	16.2 µM (inactive)	13.9 µM (inactive)	–	13.7 µM (inactive)	14.4 µM (inactive)	15.4 µM (inactive)	14.3 µM (inactive)	5.68 µM (inactive)	5.81 µM (inactive)	2.75 µM (inactive)	13.8 µM (inactive)	13.3 µM (inactive)	14.4 µM (inactive)	–	14.6 µM (inactive)	15 µM (inactive)	12.2 µM (inactive)	15 µM (inactive)	12.2 µM (inactive)	–
CCc1n[nH]c(=O)n1N	> 100 µM (inactive)	> 100 µM (inactive)	> 100 µM (inactive)	> 100 µM (inactive)	> 100 µM (inactive)	> 100 µM (inactive)	> 100 µM (inactive)	> 100 µM (inactive)	> 100 µM (inactive)	> 100 µM (inactive)	> 100 µM (inactive)	> 100 µM (inactive)	> 100 µM (inactive)	> 100 µM (inactive)	> 100 µM (inactive)	–	> 100 µM (inactive)	> 100 µM (inactive)	> 100 µM (inactive)	> 100 µM (inactive)

Reference: ChEMBL document CHEMBL1201862, “PubChem BioAssay data set” (2004)
